Columns and labels:
[1] = biological target: T1, WASp (Homo sapiens, UniProt P42768); experiment: WASp ubiquitylation in platelets (immunoprecipitation, anti-ubiquitin blot); format: cell-based; settings: 15 min pre-incubation, vs activated untreated cells
T1 construct: endogenous in cells; host or cells: primary human platelets from healthy donors
T1 sequence (P42768 1-502): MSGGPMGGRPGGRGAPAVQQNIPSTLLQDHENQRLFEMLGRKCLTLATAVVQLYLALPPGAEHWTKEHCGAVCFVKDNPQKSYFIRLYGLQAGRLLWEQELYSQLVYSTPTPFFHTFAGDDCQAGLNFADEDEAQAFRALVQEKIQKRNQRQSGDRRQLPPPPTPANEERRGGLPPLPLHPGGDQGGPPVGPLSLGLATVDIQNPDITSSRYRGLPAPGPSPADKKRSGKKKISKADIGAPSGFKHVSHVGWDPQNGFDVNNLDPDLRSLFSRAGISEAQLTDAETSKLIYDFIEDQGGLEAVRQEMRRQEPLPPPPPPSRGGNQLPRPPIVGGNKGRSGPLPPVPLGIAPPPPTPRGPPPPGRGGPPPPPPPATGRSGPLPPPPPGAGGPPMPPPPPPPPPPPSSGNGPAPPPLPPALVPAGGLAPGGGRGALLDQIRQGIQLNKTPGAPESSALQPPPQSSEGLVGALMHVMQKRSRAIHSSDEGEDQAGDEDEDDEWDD
Experimental: FIGS. 12A and 12B. show freshly-isolated platelets that were either stimulated (+) with TRAP-6 (10 μM) or unstimulated (−) and pre-incubated at 37° C. for 15 min with either DMSO or the indicated WASp-binding SMCs (FIG. 12A—SMC #6; FIG. 12B—SMC #33), followed by lysis. Lysates were subjected to immunoprecipitation with anti-WASp antibody and were analyzed by western blotting with anti-ubiquitin (Ub) and with anti-WASp as precipitation control. Ubiquitylated WASp appears as a smear of bands above the molecular weight (MW) of 65 kDa with a prominent band at ˜81 kDa. Blots are representative of three independent experiments.
(§1) Immunoprecipitations and western blotting analysis were performed as previously described (Reicher et al, 2012). Briefly, platelets (2×10^8 cells per sample) were lysed by the addition of an equal volume of 2× lysis buffer (30 mM HEPES pH7.4, 300 mM NaCl, 2 mM phenylmethyl sulfonyl fluoride (PMSF), 2 mM sodium orthovanadate, 2% Triton X-100 and complete protease inhibitor tablets (Roche)). MEG-01 cells (2×10^7 cells per sample) were lysed in 1.25× lysis buffer. Proteasome activity was blocked by addition of MG132 (AdooQ) to platelets and Meg-01 cell medium at final concentration of 10 μM, for 1 h before the cells were harvested. […]

[2] = biological target: T1, WASp; experiment: WASp ubiquitylation in PBMCs (immunoprecipitation, anti-ubiquitin blot); format: cell-based; settings: vs activated negative control cells
Experimental: FIGS. 12C and 12D. show freshly-isolated PBMCs that were either co-stimulated (+) with anti-CD3 and anti-CD28 or unstimulated (−). The PBMCs were pre-incubated at 37° C. for 15 min with either DMSO or the indicated WASp-binding SMCs (FIG. 12C—SMC #6; FIG. 12D—SMC #33), followed by lysis. WASp ubiquitylation was determined by immunoprecipitation as in FIG. 12A-12B. Ubiquitylated WASp appears as a smear of bands above the MW of 65 kDa with a prominent band at […]. Blots are representative of three independent experiments.
as §1, with “harvested. Densitometric analysis of band intensities was performed with ImageJ software, with final results normalized with WASp or GAPDH as loading controls for immunoprecipitated samples and whole-cell lysates, respectively.” for “harvested.”

| WASp ubiquitylation in active platelets [1] | ubiquitylation of WASp in active lymphocytes [2] | SMILES |
| --- | --- | --- |
| considerably decreased | downregulated | CC(=O)N[C@H]1C[C@@H](c2ccc3c(c2)nnn3C)O[C@@H](c2ccc(Cl)cc2)C1 [SMC #6, N-[(2R,4R,6S)-2-(4-chlorophenyl)-6-(1-methylbenzotriazol-5-yl)oxan-4-yl]acetamide] |
| considerably decreased | downregulated | Cc1ccccc1N(CC(=O)NCc1ccccc1)C(=O)CCC(=O)Nc1nccs1 [SMC #33, N′-[2-(benzylamino)-2-oxoethyl]-N′-(2-methylphenyl)-N-(1,3-thiazol-2-yl)butanediamide] |

— US12150940B2, “WASp-protecting small molecules, compositions, methods and uses thereof in the treatment of innate and acquired immune-related disorders or conditions” (BAR ILAN UNIVERSITY, priority 2016, dated 2024)
